Reference: BigSolDB 2.1

Brc1cc(Br)cc(Br)c1
solubility (mole fraction)
Settings	288.15 K	293.15 K	298.15 K	303.15 K	308.15 K	313.15 K	318.15 K	323.15 K	328.15 K
in 1,4-dioxane	0.0656	0.0742	0.0851	0.0972	0.111	0.123	0.141	0.157	0.178
in DMAc	0.0159	0.0195	0.024	0.0292	0.0346	0.041	0.0491	0.0582	0.0683
in DMF	0.00998	0.0127	0.0161	0.0202	0.0244	0.0295	0.0355	0.044	0.0521
